Values quoted from earlier work as cited in publication PMC9389804 (Journal of Hematology & Oncology, 2022).

Parameters: method as in PMID 29567798
Settings: median follow-up of 5 years; cited from earlier work

Cc1ccc(C(=O)Nc2ccc(CN3CCN(C)CC3)c(C(F)(F)F)c2)cc1C#Cc1cnc2cccnn12 [ponatinib]
incidence of arterial occlusive and venous thrombotic events: 31.0%
